Laboratory results from patent US11873298B2, “Compounds and uses thereof” (JANSSEN PHARMACEUTICA NV, priority 2017, dated 2024).
Several values for one entry are separate records, joined by “and”; a condition that tells them apart may be missing. Equal values may be shown once.

How the values were obtained:
Assay type in all cases: cell-based
SCD5 = molecular target: T1, SCD5 (Homo sapiens, UniProt Q86SK9); assay: Growth inhibition of humanized yeast strain expressing SCD5 as sole desaturase; conditions: humanized yeast strain expressing SCD5
T1 construct: host or cells: S. cerevisiae ole1Δ strain (W303 pdr1Δ pdr3Δ background), plasmid pRS316 with TDH3 promoter and CYC1 terminator
T1 sequence (Q86SK9 1-330): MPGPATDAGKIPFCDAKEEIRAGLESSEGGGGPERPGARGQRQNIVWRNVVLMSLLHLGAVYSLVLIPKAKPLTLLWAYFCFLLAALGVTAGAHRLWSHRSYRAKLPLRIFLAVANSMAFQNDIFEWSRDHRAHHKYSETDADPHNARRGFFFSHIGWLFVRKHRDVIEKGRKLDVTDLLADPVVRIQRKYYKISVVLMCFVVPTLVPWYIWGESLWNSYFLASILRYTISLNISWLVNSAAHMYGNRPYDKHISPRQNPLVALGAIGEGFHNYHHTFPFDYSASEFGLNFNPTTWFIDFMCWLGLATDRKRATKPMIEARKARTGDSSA
Method in brief: (§1)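 Plasmid-complemented ole1Δ yeast, drug-pump deleted (pdr1Δ pdr3Δ), depend solely on the introduced Ole1, SCD1 or SCD5 desaturase. Compounds are added from DMSO to cells in uracil-free galactose medium, 2× density 0.02, and OD600 is read after 24 h or 40 h respectively.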

Ole1 = molecular target: T2, Ole1 (Saccharomyces cerevisiae, UniProt P21147); assay: Growth inhibition of yeast strain expressing Ole1 as sole desaturase; conditions: yeast strain expressing Ole1 as sole desaturase
T2 construct: expressed in transfected cells; host or cells: S. cerevisiae ole1Δ strain (W303 pdr1Δ pdr3Δ background), plasmid pRS316 with TDH3 promoter and CYC1 terminator
T2 sequence (P21147 1-510): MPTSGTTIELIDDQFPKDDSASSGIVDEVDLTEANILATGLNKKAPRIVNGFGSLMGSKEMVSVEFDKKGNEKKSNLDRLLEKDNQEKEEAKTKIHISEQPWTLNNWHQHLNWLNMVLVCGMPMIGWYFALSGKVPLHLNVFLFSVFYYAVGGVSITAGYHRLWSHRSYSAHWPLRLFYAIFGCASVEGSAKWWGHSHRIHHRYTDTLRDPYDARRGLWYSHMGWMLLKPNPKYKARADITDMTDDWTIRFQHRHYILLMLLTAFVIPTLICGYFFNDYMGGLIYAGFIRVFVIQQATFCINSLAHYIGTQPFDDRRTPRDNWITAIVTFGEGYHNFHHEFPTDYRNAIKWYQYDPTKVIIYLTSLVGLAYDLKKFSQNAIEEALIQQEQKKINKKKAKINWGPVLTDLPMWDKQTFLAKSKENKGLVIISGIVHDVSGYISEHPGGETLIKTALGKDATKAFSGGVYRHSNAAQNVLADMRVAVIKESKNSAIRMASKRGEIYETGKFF
Method in brief: as §1

SCD1 = molecular target: T3, SCD1 (Homo sapiens, UniProt O00767); assay: Growth inhibition of humanized yeast strain expressing SCD1 as sole desaturase; conditions: humanized yeast strain expressing SCD1
T3 construct: host or cells: S. cerevisiae ole1Δ strain (W303 pdr1Δ pdr3Δ background), plasmid pRS316 with TDH3 promoter and CYC1 terminator
T3 sequence (O00767 1-359): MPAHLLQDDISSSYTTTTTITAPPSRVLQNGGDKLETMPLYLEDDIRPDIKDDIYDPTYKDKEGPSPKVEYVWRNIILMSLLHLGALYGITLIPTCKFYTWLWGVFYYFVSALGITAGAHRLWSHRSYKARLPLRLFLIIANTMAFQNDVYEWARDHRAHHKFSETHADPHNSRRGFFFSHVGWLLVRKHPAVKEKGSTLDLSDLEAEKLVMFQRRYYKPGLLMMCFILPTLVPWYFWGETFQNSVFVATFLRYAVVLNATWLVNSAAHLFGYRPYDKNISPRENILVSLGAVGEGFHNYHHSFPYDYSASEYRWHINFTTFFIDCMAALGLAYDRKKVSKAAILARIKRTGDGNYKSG
Method in brief: as §1

SMILES	IC50 (SCD5) [µM]	SCD5 % Max Inhibition (SCD5)	IC50 (Ole1) [µM]	OLE1 % Max Inhibition (Ole1)	SCD1 % Max Inhibition (SCD1)	IC50 (SCD1) [µM]
COC(=O)N1CCC(c2nc(-c3ccc4c(C)nn(C)c4c3)no2)CC1 [Compound 273]	> 45	55.0%	> 45	78.7%	67.9%	
CCN1C(=O)COc2ccc(-c3nc(C4(c5ccc(OC)cc5)CC4)no3)cc21 [Compound 158]	> 45	91.96%	> 45	89.93%	78.34%	> 45
O=C(CN1Cc2ccccc2C1=O)N1CCC(c2nc(-c3ccc4nonc4c3)no2)CC1 [Compound 182]	> 45	79.82%	> 45	124.27%	113.27%	> 45
CCn1nc2cc(-c3noc(C4CCN(C(=O)OC(C)(C)C)CC4)n3)ccc2c1C [Compound 342]	> 45	43.5%	> 45	80.9%	75.9%	> 45
Cc1nn(C)c2cc(-c3noc(C4CCN(C(=O)[C@H]5CC(=O)N(c6cccc(C#N)c6)C5)CC4)n3)ccc12 [Compound 305]	> 45		> 45	6.6% and 4.23%	73.2% and 55.27%	≥ 45
O=C(C1CC(=O)N(c2ccccc2)C1)N1CCC(c2nc(-c3ccc4nonc4c3)no2)CC1 (centres unmarked) [Compound 164]	> 45	73.90%	> 45	96.96%	102.20%	> 45
Cc1nn(C)c2cc(-c3nc([C@@H]4C[C@H]5CC[C@@H](C4)N5C(=O)OC(C)(C)C)no3)ccc12 [Compound 341]	> 45	45.6%	> 45	91.7%	45.2%	> 45
Cc1nn(C)c2cc(-c3noc(C4CCN(C(=O)CNC(=O)c5ccccc5)CC4(F)F)n3)ccc12 (centres unmarked) [Compound 244]	> 45	2.85% and 2.47%	> 45	3.34% and 1.29%	15.54% and 8.51%	> 45
O=C(C1CC(=O)N(c2cccc(Cl)c2)C1)N1CCC(c2nc(N3CC4(COC4)C3)no2)CC1 (centres unmarked) [Compound 339]	> 45	75.4%	> 45	85.7%	56.1%	> 45
COc1cccc(-c2noc(C3CC(=O)N(c4ccc(C)c(C)c4)C3)n2)c1 (centres unmarked) [Compound 489]	41.1	61.11%	> 45	94.30%	68.84%	
Cc1nn(C)c2cc(-c3noc(C4CCN(C(=O)CNC(=O)c5ccccc5)C4)n3)ccc12 (centres unmarked) [Compound 209]	> 45	78.88%	> 45	3.74%	101.51%	> 45
COc1ccc(-c2noc(C3CCN(C(=O)CN)CC3)n2)cc1OC [Compound 75]	30		> 45			> 45
COc1ccc(N2CC(C(=O)N3CCC(c4nc(-c5ccc6c(C)nn(C)c6c5)no4)CC3)CC2=O)cc1 (centres unmarked) [Compound 206]	> 45	19.89%	> 45	5.25%	93.66%	> 45
Cc1nn(C)c2cc(-c3noc(C4CCN(C(=O)CNC(=O)c5ccsn5)CC4)n3)ccc12 [Compound 226]	> 45	0.69%	> 45	1.24%	33.20%	> 45
Cc1nn(C)c2ccc(-c3noc(C4CCN(C(=O)c5ccc(C(C)C)cc5)CC4)n3)cc12 [Compound 297]	> 45	9.2%	25.2	42.0%	5.7%	
Cc1nn(C)c2cc(-c3nc(C4CCN(C(=O)OC(C)(C)C)CC4)no3)ccc12 [Compound 319]	> 45		> 45	74.25% and 63.83% and 86.3% and 84.75%	97.10% and 89.16% and 81.7% and 75.42%	≥ 45
Cc1nn(C)c2cc(-c3noc(C4CCN(C(=O)C5CC(=O)N(c6cccc(C#N)c6)C5)CC4)n3)ccc12 (centres unmarked) [Compound 168]	> 45		> 45	4.90% and 8.34%	114.58% and 74.07%	> 45
CC(C)c1ccc(C(=O)N2CCC(c3nc(C(=O)Nc4ccnn4C)no3)CC2)cc1 [Compound 287]	> 45	66.81%	> 45	93.89%	72.51%	
O=C(CNC(=O)c1ccccc1)NCCc1nc(-c2ccccc2)no1 [Compound 485]	30	65.42%	> 45	75.19%	62.60%	
CCN(Cc1nc(-c2ccc(OC)c(OC)c2)no1)C(=O)Cc1ccccc1 [Compound 492]	> 45	75.64%	> 45	106.45%	83.92%	
Cc1ncc2ccc(-c3noc(C4CCN(C(=O)C5CC(=O)N(c6ccccc6)C5)CC4)n3)cn12 (centres unmarked) [Compound 216]	> 45	75.59%	35.1	61.84%	83.82%	> 45
CNC(=O)c1ccc(-c2noc(C3CCN(C(=O)[C@H]4CC(=O)N(c5ccccc5)C4)CC3)n2)cn1 [Compound 252]	> 45	39.69%	> 45	27.85%	80.73%	
